Data reported in patent US12116343B2, “Inhibitors of APOL1 and methods of using same” (Vertex Pharmaceuticals Incorporated, priority 2020, dated 2024).

Target: T1, APOL1 G1 Protein (Homo sapiens, UniProt O14791, I384M/S342G)
T1 sequence (O14791 28-398 S342G/I384M): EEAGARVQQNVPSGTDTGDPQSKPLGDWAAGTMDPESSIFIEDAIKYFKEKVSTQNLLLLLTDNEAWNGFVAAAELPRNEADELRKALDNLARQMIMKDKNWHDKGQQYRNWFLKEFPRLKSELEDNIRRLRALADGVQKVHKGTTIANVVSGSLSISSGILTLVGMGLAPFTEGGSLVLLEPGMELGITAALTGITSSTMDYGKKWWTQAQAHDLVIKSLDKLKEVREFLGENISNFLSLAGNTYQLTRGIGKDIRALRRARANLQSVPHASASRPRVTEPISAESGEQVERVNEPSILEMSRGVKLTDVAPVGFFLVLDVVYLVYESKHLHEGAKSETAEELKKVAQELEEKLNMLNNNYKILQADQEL
Test: Trypanosoma brucei brucei lysis assay using APOL1 recombinant protein (AlamarBlue viability)
Format: cell-based
Details: Trypanosoma brucei brucei lysis, recombinant APOL1, AlamarBlue; read-out: Trypanosoma Assay (IC50)
From the text: Trypanosoma brucei brucei is a blood stream parasite to which human, gorillas and baboon are immune due to the presence of the APOL1 protein in their HDL particles. The protein is uptaken by the parasite via the TbHpHb receptor located in its flagellar pocket and is bonded by the Hpr protein contained in the HDL particles which triggers the receptor endocytosis by the parasite.
Following endocytosis, the formed vesicle containing the HDL particle matures from early to late endosome, and subsequently to lysosome. The concomitant pH change in the lumen of the vesicle triggers the insertion of the APOL1 protein into the membrane of the late endosome/lysosome and hereby triggers lysosomal membrane premeabilisation and as a further downstream event, trypanosome lysis. Trypanosoma brucei brucei is sensitive to lysis by all three APOL1 variants (G0, G1, and G2).
The Trypanosoma brucei brucei lysis assay is a lysis assay of the parasite using recombinant APOL1 protein variant followed by a fluorescent detection method of viability by the addition of AlamarBlue reagent to the assay well, a general metabolic redox indicator (AlamarBlue assay).
Briefly, the AlamarBlue active compound, the resazurin, a blue, water soluble, non-toxic and cell permeable molecule, which can be followed by absorbance, is reduced by various metabolic pathways into resorufin, a red compound which can be followed by either absorbance or fluorescence. The assay allows the calculation of the percent viability (percent of living Trypanosomes remaining in each well) at the end of a lysis relative to the untreated condition by interpolation of fluorescent values (FLU) on a standard curve with a known amount of seeded trypanosome/well.
Trypanosoma brucei brucei (ATCC, Cat. No. PRA-382) • Lister 427 VSG 221 bloodstream form.
Thaw/Expansion Media (ATCC Medium 2834 Modified HMI-9 Medium)
Assay Media (No Phenol Red/No FBS): Make on Day of Use
Hypoxanthine Stock (100×)-9 (10×)
Equipment • El-Clip Tip pipette 12 channel adjustable 2-125 μL, Cat. No. 4672070BT • ThermoFisher MultiDrop 384, Cat. No. 5840300 • Multidrop • Agilent Bravo, Cat. No. G5409A • Bravo • SpectraMax M5
Assay Ready Plates (ARPs) • ARPs comes in two formats: • […] final top concentration with a 2.5 fold dilution down. • […] final top concentration with a 3 fold dilution down. • Both have a 10 point Dose response. • 0.1% DMSO final in the Black Assay Plate. • Compounds are diluted 1000 fold in the Black Assay Plate. • Each plate is designed for 14 compounds in duplicate. • In the final Black Assay Plate:
Trypanosoma brucei brucei Culture
Step 2, Day 4 • Centrifuge at 800×g for 5 minutes at room temperature. • Resuspend in 1 mL media. • Make a 1:25 fold dilution (10 μL/240 μL media). • Count on a hemocytometer (after adding parasites). • Let sit for 1-2 minutes for the parasites to settle. • Count should be approximately 100 viable motile parasites/16 grid or approximately 25×10^6 parasites/flask. • Passage the parasites by adding 1×10^6 parasites/T75 flask in 20 mL media. • Passage the parasites by adding 2.33×10^6 parasites/T175 flask in 46.6 mL media. • For every T75 flask should make enough for approximately 1.5×384 well assay plates. • For every T175 flask should make enough for approximately 3.8×384 well assay plates.
Step 3, Day 6 • Centrifuge at 800×g for 5 minutes. • Resuspend in 3 mL assay media (No phenol red, no FBS) per 75 starting flask. • Resuspend in 7 mL assay media (No phenol red, no FBS) per 175 flask • Make a 1:25 fold dilution. • Count by hemocytometer. • Every T75 flask set up should have approximately 75×10^6 parasites/flask (verify doubling time=8.7 hrs±1 hr). • Every T175 flask set up should have approximately 175×10^6 parasites/flask (verify doubling time=8.7 hrs±1 hr). • Require 46×10^6 parasites per 384 well plate (at 120,000 parasites per well). Protocol B […]

Row | SMILES | IC50
1 | C[C@H](CO)N(C)C(=O)[C@H]1C[C@H](c2c(-c3ccc(F)cc3)[nH]c3c(F)cc(F)cc32)C1 [Compound 142] | < 250 nM
2 | O=C([C@H]1C[C@H](c2c(-c3ccc(F)cc3)[nH]c3c(F)cc(F)cc32)C1)N1CCCC1CCO (stereo partly drawn) [Compound 101] | 250 to 1000 nM
3 | O=C(N[C@H](CO)C(F)(F)F)[C@H]1C[C@H](c2c(-c3ccc(F)cc3)[nH]c3c(F)cc(F)cc32)C1 [Compound 164] | < 250 nM
4 | O=C([C@H]1C[C@H](c2c(-c3ccc(F)cc3)[nH]c3c(F)cc(F)cc32)C1)N1CCCC(CO)C1 (stereo partly drawn) [Compound 147] | > 1000 nM
5 | O=C([C@H]1C[C@H](c2c(-c3ccc(F)cc3)[nH]c3c(F)cc(F)cc32)C1)N1CC[C@H](CO)[C@H](O)C1 [Compound 100] | > 1000 nM
6 | CN(CC(O)CO)C(=O)[C@H]1C[C@H](c2c(-c3ccc(F)cc3)[nH]c3c(F)cc(F)cc32)C1 (stereo partly drawn) [Compound 158] | 250 to 1000 nM
7 | O=C([C@H]1C[C@H](c2c(-c3ccc(F)cc3)[nH]c3c(F)cc(F)cc32)C1)N1CCCC(CCO)C1 (stereo partly drawn) [Compound 128] | > 1000 nM
8 | O=C(NCCCO)[C@H]1C[C@H](c2c(-c3ccc(F)cc3)[nH]c3c(F)cc(F)cc32)C1 [Compound 104] | < 250 nM
9 | O=C([C@H]1C[C@H](c2c(-c3ccc(F)cc3)[nH]c3c(F)cc(F)cc32)C1)N(CCOCCO)C1CCC1 [Compound 121] | > 1000 nM
10 | O=C(N[C@@H](CO)C(F)(F)F)[C@H]1C[C@H](c2c(-c3ccc(F)cc3)[nH]c3c(F)cc(F)cc32)C1 [Compound 163] | < 250 nM
11 | CC(O)CNC(=O)[C@H]1C[C@H](c2c(-c3ccc(F)cc3)[nH]c3c(F)cc(F)cc32)C1 (stereo partly drawn) [Compound 167] | 250 to 1000 nM
12 | O=C(NC(CO)CO)[C@H]1C[C@H](c2c(-c3ccc(F)cc3)[nH]c3c(F)cc(F)cc32)C1 [Compound 8] | < 250 nM
13 | O=C([C@H]1C[C@H](c2c(-c3ccc(F)cc3)[nH]c3c(F)cc(F)cc32)C1)N1CCC[C@@H](O)C1 [Compound 149] | < 250 nM
14 | O=C(NCc1cnco1)[C@H]1C[C@H](c2c(-c3ccc(F)cc3)[nH]c3c(F)cc(F)cc32)C1 [Compound 170] | < 250 nM
15 | CC(CO)N1CCN(C(=O)[C@H]2C[C@H](c3c(-c4ccc(F)cc4)[nH]c4c(F)cc(F)cc43)C2)CC1 (mixture of isomers) [Compound 122] | > 1000 nM
16 | O=C([C@H]1C[C@H](c2c(-c3ccc(F)cc3)[nH]c3c(F)cc(F)cc32)C1)N1CCCC[C@H]1CO [Compound 146] | 250 to 1000 nM
17 | O=C(NC1CC(O)C1)[C@H]1C[C@H](c2c(-c3ccc(F)cc3)[nH]c3c(F)cc(F)cc32)C1 (stereo partly drawn) [Compound 5] | 250 to 1000 nM
18 | O=C([C@H]1C[C@H](c2c(-c3ccc(F)cc3)[nH]c3c(F)cc(F)cc32)C1)N(CCO)CCCO [Compound 117] | 250 to 1000 nM
19 | CC(C)(NC(=O)[C@H]1C[C@H](c2c(-c3ccc(F)cc3)[nH]c3c(F)cc(F)cc32)C1)C(N)=O [Compound 11] | < 250 nM
20 | O=C([C@H]1C[C@H](c2c(-c3ccc(F)cc3)[nH]c3c(F)cc(F)cc32)C1)N1CCC[C@H](O)C1 [Compound 105] | 250 to 1000 nM
21 | O=C([C@H]1C[C@H](c2c(-c3ccc(F)cc3)[nH]c3c(F)cc(F)cc32)C1)N1CCOCC1CCO (stereo partly drawn) [Compound 113] | > 1000 nM
22 | O=C1C[C@@H](NC(=O)[C@H]2C[C@H](c3c(-c4ccc(F)cc4)[nH]c4c(F)cc(F)cc43)C2)C(=O)N1 [Compound 166] | < 250 nM
23 | CCC1(O)CN(C(=O)[C@H]2C[C@H](c3c(-c4ccc(F)cc4)[nH]c4c(F)cc(F)cc43)C2)C1 [Compound 112] | > 1000 nM

Row | SMILES | IC50
24 | O=C(NCc1cocn1)[C@H]1C[C@H](c2c(-c3ccc(F)cc3)[nH]c3c(F)cc(F)cc32)C1 [Compound 168] | < 250 nM
25 | CC(O)C1CCCN(C(=O)[C@H]2C[C@H](c3c(-c4ccc(F)cc4)[nH]c4c(F)cc(F)cc43)C2)C1 (stereo partly drawn) [Compound 131] | > 1000 nM
26 | O=C(NCC1(O)CCC1)[C@H]1C[C@H](c2c(-c3ccc(F)cc3)[nH]c3c(F)cc(F)cc32)C1 [Compound 143] | > 1000 nM
27 | O=C([C@H]1C[C@H](c2c(-c3ccc(F)cc3)[nH]c3c(F)cc(F)cc32)C1)N1CCN[C@H](CO)C1 [Compound 161] | 250 to 1000 nM
28 | O=C([C@H]1C[C@H](c2c(-c3ccc(F)cc3)[nH]c3c(F)cc(F)cc32)C1)N1CCCC[C@@H]1CO [Compound 107] | 250 to 1000 nM
29 | O=C([C@H]1C[C@H](c2c(-c3ccc(F)cc3)[nH]c3c(F)cc(F)cc32)C1)N1CCC(CCO)CC1 [Compound 134] | > 1000 nM
30 | CN(CC1(CO)CCOCC1)C(=O)[C@H]1C[C@H](c2c(-c3ccc(F)cc3)[nH]c3c(F)cc(F)cc32)C1 [Compound 120] | > 1000 nM
31 | O=C([C@H]1C[C@H](c2c(-c3ccc(F)cc3)[nH]c3c(F)cc(F)cc32)C1)N1CCC2(COC2)C1 [Compound 103] | > 1000 nM
32 | O=C([C@H]1C[C@H](c2c(-c3ccc(F)cc3)[nH]c3c(F)cc(F)cc32)C1)N1CC2(CC(O)C2)C1 [Compound 137] | > 1000 nM
33 | O=C([C@H]1C[C@H](c2c(-c3ccc(F)cc3)[nH]c3c(F)cc(F)cc32)C1)N(CCO)c1cnccn1 [Compound 132] | > 1000 nM
34 | O=C1CC[C@H](NC(=O)[C@H]2C[C@H](c3c(-c4ccc(F)cc4)[nH]c4c(F)cc(F)cc43)C2)C1 [Compound 139] | 250 to 1000 nM
35 | NC(=O)C1CCN(C(=O)[C@H]2C[C@H](c3c(-c4ccc(F)cc4)[nH]c4c(F)cc(F)cc43)C2)CC1 [Compound 133] | > 1000 nM
36 | O=C(NC1(CO)CCC1)[C@H]1C[C@H](c2c(-c3ccc(F)cc3)[nH]c3c(F)cc(F)cc32)C1 [Compound 6] | < 250 nM
37 | C[C@@H](O)[C@H](CO)NC(=O)[C@H]1C[C@H](c2c(-c3ccc(F)cc3)[nH]c3c(F)cc(F)cc32)C1 [Compound 155] | 250 to 1000 nM
38 | O=C([C@H]1C[C@H](c2c(-c3ccc(F)cc3)[nH]c3c(F)cc(F)cc32)C1)N1CC(n2cccn2)C1 [Compound 96] | > 1000 nM
39 | NC(=O)[C@H]1CCCN1C(=O)[C@H]1C[C@H](c2c(-c3ccc(F)cc3)[nH]c3c(F)cc(F)cc32)C1 [Compound 153] | < 250 nM
40 | O=C(O)CNC(=O)[C@H]1C[C@H](c2c(-c3ccc(F)cc3)[nH]c3c(F)cc(F)cc32)C1 [Compound 10] | > 1000 nM
41 | O=C([C@H]1C[C@H](c2c(-c3ccc(F)cc3)[nH]c3c(F)cc(F)cc32)C1)N1CCN(CCO)CC1 [Compound 126] | > 1000 nM
42 | CC1(C)CN(C(=O)[C@H]2C[C@H](c3c(-c4ccc(F)cc4)[nH]c4c(F)cc(F)cc43)C2)CCC1O (stereo partly drawn) [Compound 114] | > 1000 nM
43 | NC(=O)[C@@H]1CCN(C(=O)[C@H]2C[C@H](c3c(-c4ccc(F)cc4)[nH]c4c(F)cc(F)cc43)C2)C1 [Compound 135] | > 1000 nM
44 | O=C([C@H]1C[C@H](c2c(-c3ccc(F)cc3)[nH]c3c(F)cc(F)cc32)C1)N1CCC(CO)(CO)CC1 [Compound 108] | > 1000 nM
45 | NC(=O)[C@H]1CCN(C(=O)[C@H]2C[C@H](c3c(-c4ccc(F)cc4)[nH]c4c(F)cc(F)cc43)C2)C1 [Compound 154] | > 1000 nM
